From patent US20260297087A1, “Pyridoimidazolone Compounds, Preparation Thereof and Therapeutic Uses Thereof” (Sanofi, priority 2023, published 2026)

Key:
ERK5 = molecular target: T1, ERK5 (Homo sapiens, UniProt Q13164); experiment: Inhibition of Cellular ERK5 Activity (cell-based assay, MEF2 luciferase reporter in SN12C cells); settings: renal cancer cell line SN12C, doxycycline-induced MEKSDD, mean where repeated
T1 construct: MEF2-luciferase reporter
Outline: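 SN12C cells carrying a MEF2-luciferase reporter and doxycycline-inducible (1 μg/ml) constitutively active MEK5DD, seeded 24 h before compound addition at 0.3–1000 nM (0.1% DMSO final). Luminescence read; IC50 is the concentration giving 50% signal reduction versus DMSO-treated cells.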

[1] = molecular target: T2, ERK5 (activated catalytic domain) (Homo sapiens, UniProt Q13164); experiment: Cell-Free Assay of ERK5 Inhibition (Time-Resolved FRET, 4EBP1 peptide phosphorylation); assay type: biochemical; settings: ERK5 catalytic domain 4 nM, 1 mM ATP, 1 μM biotinylated 4EBP1 peptide, 30 min at 37° C.; mean where repeated; read-out: Cell-free assay (IC50 in nM)
T2 construct: purchased CarnaBiosciences 04-146
Outline: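 Activated ERK5 catalytic domain at 4 nM preincubated 30 min at room temperature with compound, then 1 mM ATP and 1 μM biotinylated 4EBP1 (aa 30-52) peptide added for 30 min at 37° C. Phosphorylation detected by TR-FRET; IC50 versus DMSO control, repeats averaged.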

T2 sequence (Q13164 55-347 limits assumed): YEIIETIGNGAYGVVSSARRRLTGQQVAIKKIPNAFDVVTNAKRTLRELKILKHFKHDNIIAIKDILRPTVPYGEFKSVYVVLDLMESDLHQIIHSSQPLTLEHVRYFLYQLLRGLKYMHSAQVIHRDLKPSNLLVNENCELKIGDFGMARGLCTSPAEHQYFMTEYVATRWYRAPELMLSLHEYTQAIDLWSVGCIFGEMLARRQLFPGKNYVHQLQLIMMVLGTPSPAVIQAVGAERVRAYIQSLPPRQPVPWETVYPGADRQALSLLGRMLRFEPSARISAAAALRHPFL
T1 sequence (Q13164 whole entry): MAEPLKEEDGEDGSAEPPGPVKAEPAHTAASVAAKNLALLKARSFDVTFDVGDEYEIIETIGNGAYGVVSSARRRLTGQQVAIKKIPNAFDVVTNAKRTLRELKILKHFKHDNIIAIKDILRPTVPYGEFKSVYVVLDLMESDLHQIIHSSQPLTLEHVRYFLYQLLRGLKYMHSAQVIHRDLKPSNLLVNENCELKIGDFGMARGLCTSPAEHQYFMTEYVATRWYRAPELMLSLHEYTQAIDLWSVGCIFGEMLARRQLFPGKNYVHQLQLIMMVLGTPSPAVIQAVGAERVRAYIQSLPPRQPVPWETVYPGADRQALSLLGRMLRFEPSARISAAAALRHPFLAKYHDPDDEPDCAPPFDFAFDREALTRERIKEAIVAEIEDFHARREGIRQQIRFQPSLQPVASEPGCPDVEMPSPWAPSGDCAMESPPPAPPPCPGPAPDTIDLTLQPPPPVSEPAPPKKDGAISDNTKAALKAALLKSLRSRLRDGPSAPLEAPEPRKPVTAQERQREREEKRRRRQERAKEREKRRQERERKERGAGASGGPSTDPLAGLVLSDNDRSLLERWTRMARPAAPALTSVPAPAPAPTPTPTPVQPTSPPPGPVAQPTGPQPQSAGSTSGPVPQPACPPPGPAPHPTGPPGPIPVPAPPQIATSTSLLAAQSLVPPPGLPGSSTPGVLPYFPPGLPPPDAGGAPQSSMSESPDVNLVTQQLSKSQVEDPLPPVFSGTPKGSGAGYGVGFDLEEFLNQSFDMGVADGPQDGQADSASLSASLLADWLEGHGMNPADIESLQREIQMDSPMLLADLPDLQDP

IC50 (ERK5): 152 nM
IC50 [1]: 557 nM
Compound: O=C(c1ccc(OC(F)(F)F)cc1)N1CCC(n2c(=O)[nH]c3ncc(C4CCOCC4)cc32)CC1 [Example 41, 6-tetrahydropyran-4-yl-1-[1-[4-(trifluoromethoxy)benzoyl]-4-piperidyl]-3H-imidazo[4,5-b]pyridin-2-one]
